How the values were obtained:
[1] = pH of saturated extract / leachate of the pigment; type: physicochemical
[2] = Solubility in water of the pigment; type: physicochemical
[3] = Salt spray exposure (ASTM B-117) of scribed aircraft primers containing the inhibitor pigment; settings: 2000 hours salt spray, scribe area
Procedure: The test was performed in a typical two component aircraft primer formulation, specifically recommended for aluminum protection. […] By visual examination of their physical state at the end of the test period, the coatings' corrosion inhibitor performance, considered directly proportional to the tested pigment components' corrosion inhibitive activity, was qualified. The scribed area was especially examined and the absence or presence of corrosion products, respectively, was interpreted as display of, or absence of, the respective corrosion inhibitor pigment's “throw power”. It will be apparent that the “throw power” is the discriminative characteristic of effective corrosion inhibitor pigments.

[4] = Salt spray exposure (ASTM B-117) of scribed coil primers, service life of coating; settings: on galvanized steel, relative to Sr-doped amorphous silica
Procedure: Steel Co.), at 0.6-0.7 mil dry film thickness, aged for at least 2 (two) days at room temperature, scribed and subsequently subjected to salt spray exposure (according to ASTM B-117). The scribes were applied in the typical cross form, and, in order to cut through the protective galvanic zinc coating from the area of the scribes, at appropriate depth. During salt spray exposure, the coatings' physical state was assessed periodically by visual examination. […] Service life of a coating is considered directly proportional to the related pigments' or additives' corrosion inhibitor performance, which is conveniently qualified by Ei, the Inhibitor Efficiency Index, defined as: […]

[S-]c1nnc(S)s1.[S-]c1nnc(S)s1.[Zn+2] [Example 1, Zn(DMTD)2]
pH (saturated extract) [1]: 4.5-5.0
solubility in water, at 24° C. [2]: 400 µg/mL

Sc1nnc(S)s1 [DMTD, 2,5-dimercapto-1,3,4 thiadiazole]
"Throw Power" Observed [3]: displayed throw power

C1CCC(NC2CCCCC2)CC1.S=c1[nH]c(=S)[nH]c(=S)[nH]1 [Example 7, Di-cyclohexyl mono-ammonium salt of trithiocyanuric acid]
extension of service life of coil coatings over Sr-doped amorphous silica [4]: 200%

— patent publication USRE45612E1, “Corrosion inhibitor composition applicable for aluminum and steel protection and procedure” (MD FIFTH WARD PROPERTIES, INC., priority 2001, dated 2015)
